Measurements published in patent US9593148B2, “DPP8 and DPP9 peptide inhibitors” (GEORG-AUGUST-UNIVERSITAT GOTTINGEN STIFTUNG OFFENTLICHEN …, priority 2012, dated 2017).
No end group written: not given here.

Tests used:
[1] = molecular target: T1, DPP9 (Homo sapiens, UniProt Q86TI2); assay: Inhibition of GP-AMC hydrolysis by purified recombinant DPP9 at a single peptide concentration; type: biochemical; conditions: 25 nM DPP9, 0.2 mM GP-AMC, 14 μM peptide; no peptide = 100
T1 construct: made in house; host or cells: Sf9 insect cells (baculovirus)
Protocol: Accordingly, the peptide is capable of inhibiting the activity of wild-type DPP9 (SEQ ID NO: 6) to a level of 35 to 5% of the activity of wild-type DPP9 (SEQ ID NO: 6) if not inhibited, as determined in an assay using 25 nM purified DPP9, 0.2 mM GP-AMC, and 14 μM of the peptide to be tested, in TB buffer (20 mM Hepes/KOH pH 7.3, 110 mM potassium acetate, 2 mM Mg acetate, 0.5 mM EGTA), supplemented with 0.2% Tween-20, 1 mM dithiothreitol. Release of AMC from GP-AMC is measured using the Appliskan microplate fluorimeter (Thermo Scientific) with 380 nm (excitation) and 480 nm (emission) filters and the Skanit software, and analysed using the Prism software.
Kinetics assays: Purified recombinant DPP9 (25 nM) was incubated with varying concentrations of GP-AMC, in TB supplemented with 0.2% Tween-20, 1 mM ditiothreitol. For inhibition assays, inhibitory peptides were added directly to the reaction mixture. For activation by SUMO 0.2 mg/ml BSA, was added to the buffer to prevent non specific binding. DPP9 were incubated with 2.5 μM of either SUMO1, SUMO1 E67A, SUMO2 for 2 hour on ice prior to the assay. Alternatively DPP9 was incubated with 1 μM of RanGAP or RanGAP modified with either SUMO1 or SUMO2 for 2 hours prior to the assay. Fluorescence was measured using the Appliskan microplate fluorimeter (Thermo Scientific) with 380 nm (excitation) and 480 nm (emission) filters and the Skanit software, and analysed using the Prism software. Each experiment was performed at least three times, in replicates of four.
To improve the inhibition of DPP9, the inventors tested several peptide libraries composed of truncated variants of the EIL peptide (>80% pure, ordered from Genescript). These peptides were incubated with recombinant DPP9 and analysed GP-AMC hydrolysis. AMC release was then compared to samples containing either DPP9 alone, or the EIL peptide.

[2] = molecular target: DPPIV (Homo sapiens, UniProt P27487); assay: GP-AMC hydrolysis by DPPIV in the presence of peptide; type: biochemical; conditions: 25 nM DPPIV, 13 μM peptide
Protocol: Preferably, the peptide is capable of inhibiting the activity by wild-type DPP9 (SEQ ID NO: 6) to a level of 30 to 5%, 29 to 5%, 28 to 5%, 27 to 5%, 26 to 5%, 25 to 5%, 24 to 5%, 23 to 5%, 22 to 5%, 21 to 5%, 20 to 5%, 19 to 5%, 18 to 5%, 17 to 5%, 16 to 5%, 15 to 5%, 14 to 5%, 13 to 5%, 12 to 5%, 11 to 5%, 10 to 5%, 9 to 5%, 8 to 5%, such as 7.5 to 5% of the activity of wild-type DPP9 (SEQ ID NO: 6) if not inhibited. […] Release of AMC from GP-AMC is measured using the Appliskan microplate fluorimeter (Thermo Scientific) with 380 nm (excitation) and 480 nm (emission) filters and the Skanit software, and analysed using the Prism software.
A&B 25 nM purified recombinant (A) DPP9 or (B) DPP8 were incubated with varying concentrations of the EIL peptide (0, 3.3 μM and 6.6 μM) and tested for hydrolysis of GP-AMC (1000, 500, 250, 125, 0 μM). C. 25 nM DPPIV was tested for the hydrolysis of GP-AMC (500, 250, 125, 0 μM) in the presence of 0 or 13 μM EIL peptide. Fluorescence was measured using the Appliskan microplate fluorimeter (Thermo Scientific) with 380 nm (excitation) and 480 nm (emission) filters and the Skanit software, and analysed using the Prism software. Each experiment was performed at least three times, in replicates of four.

[3] = system: cytosolic prolyl peptidase activity (HeLa cytosolic fractions); assay: GP-AMC hydrolysis in HeLa cytosolic fractions incubated with peptide; type: biochemical, human; conditions: HeLa cytosolic fractions, 0, 27.7 or 55.6 μM peptide
Protocol: HeLa cytosolic fractions were incubated with 0, 27.7 or 55.6 μM peptide EIL, and immediately tested for hydrolysis of varying concentrations of A. GP-AMC or B. R-AMC. Fluorescence was measured using the Appliskan microplate fluorimeter (Thermo Scientific) with 380 nm (excitation) and 480 nm (emission) filters and the Skanit software, and analysed using the Prism software. Each experiment was performed at least three times, in replicates of four.
Since the EIL peptide can displace SUMO1 from a DPP9-SUMO1 or a DPP8-SUMO1 complex (FIG. 2D), the inventors tested whether the EIL peptide would inhibit the association-dependent activation of DPP8 and DPP9 by SUMO1 in cell extracts. For this the inventors incubated cytosolic extracts with the EIL peptide and tested for the hydrolysis of GP-AMC (FIG. 8A). […] For control, the inventors also measured the hydrolysis of R-AMC, which is not a substrate for DPP8 or DPP9 (FIG. 8B).

[4] = molecular target: T2, DPP9-SUMO1 interaction (Homo sapiens, UniProt Q86TI2); assay: Peptide competition of DPP9 binding to SUMO1-immobilized beads (pull down); conditions: 500 ng recombinant DPP9, peptide 0.1 mg/ml
T2 construct: made in house; host or cells: DPP9: Sf9 insect cells
Protocol: Ovalbumin (Ov) coupled beads were used for control. Bound proteins were detected by western blotting using specific antibodies. B. Shown is a pull down assay as in A with recombinant DPP9, DPP8, Uba2 or GST-PIAS3. C. Recombinant DPP9 was incubated with 15 mer peptides of a peptide library covering SUMO1 amino acid sequence. The DPP9-peptide solutions were then incubated with SUMO1-immobilized beads. Following extensive washing steps, bound DPP9 was eluted with sample buffer and detected DPP9-specific antibodies. D. Recombinant DPP8 and DPP9 were incubated with SUMO1-immobilized beads. To elute bound proteins, beads were incubated with either SUMO1-peptide 5 (overlapping SIG) or with SUMO1-peptide 9. […] Interacting DPP9 was detected using a DPP9 specific antibody. […] Interacting proteins were eluted with sample buffer and detected using specific antibodies. […]
To study the preferential association of DPP8 and DPP9 with SUMO1 but not SUMO2, the inventors aimed to identify the surfaces on SUMO1 involved in these interactions. First the inventors analysed the interaction of DPP9 with SUMO1 mutants in residues which were previously shown via NMR and crystal structures to interact with SIM containing proteins (Song et al, 2004; Hecker et al, 2006; Reverter & Lima, 2005). […] SUMO1-peptides 5 or 9 were then added and the release of bound DPP8 or DPP9 from the SUMO beads was analysed by SDS-PAGE (FIG. 2D). […]

[5] = system: HEK293 cells; assay: Cytosolic prolyl peptidase activity of HEK293 cells treated with peptide plus carrier Peptide 1; type: cell-based, human; conditions: 5 μM peptide with 100 μM Peptide 1, 30 min, 5 μg extract, 500 μM GP-AMC
Protocol: Cells were incubated for 30 minutes with 0 μM, 5 μM or 10 μM […] (SEQ ID NO: 40) and 100 μM carrier pep-1. Cytosolic extracts of cells (5 μg) were then tested for hydrolysis of 0.5 mM GP-AMC.
The inventors tested whether the inhibitory peptides can be inserted into cells. For this purpose the inventors established a method using a well characterized carrier peptide: Peptide 1 ([…]; SEQ ID NO: 48), in combination with […] (SEQ ID NO: 40). To test for effective inhibition, the inventors measured for hydrolysis of an artificial DPP8 and DPP9 substrate: GP-AMC, specifically in cytosolic extracts. For this, 5 μM or 10 μM of […] (SEQ ID NO: 40) were incubated with 100 μM Peptide 1, at 37° C. for 30 minutes, in […] DMEM without FCS, supplemented with glutamine and antibiotics. Once a complex was formed between the […] (SEQ ID NO: 40) and peptide 1, it was added to HEK293 cells (human embryonic kidney cells), grown in 24 well plates (50% confluence), and incubated for 30 minutes at 37° C. Cells were then trypsinized and washed twice with PBS buffer. Cell pellet was shock frozen in liquid nitrogen. […] Fluorescence was measured using the Appliskan microplate fluorimeter (Thermo Scientific) with 380 nm (excitation) and 480 nm (emission) filters and the Skanit software, and analysed using the Prism software.

[6] = molecular target: T3, SUMO1-DPP9 interaction (Homo sapiens, UniProt P63165); assay: ELISA: competition of SUMO1 binding to immobilized DPP9; conditions: SUMO1 pre-incubated with varying concentrations of peptide
T3 construct: made in house; DPP9: Sf9 insect cells
Protocol: A. HA-tagged DPP9 mutants (DPP9V285A, DPP9V287A, DPP9I288A and DPP9V290) were expressed in HEK293T cells and purified using anti-HA beads agarose. Purified DPP9 proteins (input) were then incubated with SUMO1-immobilized beads. Bound DPP9 was eluted and analysed by western blotting using anti HA antibodies. B. Alignment of the amino-acid sequences corresponding to the ‘arms’ of DPP9 (SEQ ID NO: 3), DPP8 (SEQ ID NO: 4) and DPPIV (SEQ ID NO: 5). C A homology model of DPP9 (published by (Park et al., 2008)), shown from the ‘back’ side and the ‘front’ (180° rotation) side, which also reveal the so-called side opening. Color code: the hydrolase domain is dark grey, the eight-bladed propeller is light grey and the extended SUMO-binding-arm is indicated. D. Results of an ELISA assay. […] The SUMO1-peptide mix was then added to immobilized DPP9, and interacting SUMO1 was quantified using SUMO1-specific antibodies.
ELISA: A 96 well plate (Immuno 96 MicroWell™ Solid Plates, Nunc) was coated with 600 ng purified recombinant proteins per well in 100 μl TB, overnight at 4° C. […] Interacting proteins were detected using specific antibodies diluted in ELISA buffer: goat anti DPP9 antibody or anti GMP antibody (SUMO1). […] Absorbance was measured at 420 nm on an Appliskan microplate fluorimeter (Thermo Scientific) and the Skanit software. […]

DPPIV, sequence (P27487 whole entry): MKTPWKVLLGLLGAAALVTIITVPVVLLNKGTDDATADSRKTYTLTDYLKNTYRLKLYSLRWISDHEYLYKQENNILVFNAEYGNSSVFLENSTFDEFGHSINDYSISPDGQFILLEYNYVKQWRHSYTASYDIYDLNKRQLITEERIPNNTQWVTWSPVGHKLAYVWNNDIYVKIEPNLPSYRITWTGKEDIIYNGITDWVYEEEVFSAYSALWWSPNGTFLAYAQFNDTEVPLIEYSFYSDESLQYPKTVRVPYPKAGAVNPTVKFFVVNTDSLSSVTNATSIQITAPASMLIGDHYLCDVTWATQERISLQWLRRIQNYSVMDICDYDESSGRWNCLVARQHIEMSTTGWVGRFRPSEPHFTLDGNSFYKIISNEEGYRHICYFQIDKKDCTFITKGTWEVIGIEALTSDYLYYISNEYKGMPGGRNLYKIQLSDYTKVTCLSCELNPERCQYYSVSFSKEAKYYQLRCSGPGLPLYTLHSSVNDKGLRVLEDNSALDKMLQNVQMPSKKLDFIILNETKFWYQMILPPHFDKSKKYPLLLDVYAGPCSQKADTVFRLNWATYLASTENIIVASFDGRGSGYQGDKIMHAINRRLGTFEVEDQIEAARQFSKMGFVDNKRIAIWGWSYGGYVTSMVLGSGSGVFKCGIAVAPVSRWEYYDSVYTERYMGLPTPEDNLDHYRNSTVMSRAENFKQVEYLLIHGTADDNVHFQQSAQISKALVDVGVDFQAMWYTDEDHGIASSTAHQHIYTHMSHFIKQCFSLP
T3 sequence (P63165 2-97 limits assumed): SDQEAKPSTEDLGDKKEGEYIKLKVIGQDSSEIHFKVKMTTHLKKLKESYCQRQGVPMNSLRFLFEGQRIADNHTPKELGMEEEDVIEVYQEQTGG
T2 sequence (Q86TI2 1-892 isoform Q86TI2-2): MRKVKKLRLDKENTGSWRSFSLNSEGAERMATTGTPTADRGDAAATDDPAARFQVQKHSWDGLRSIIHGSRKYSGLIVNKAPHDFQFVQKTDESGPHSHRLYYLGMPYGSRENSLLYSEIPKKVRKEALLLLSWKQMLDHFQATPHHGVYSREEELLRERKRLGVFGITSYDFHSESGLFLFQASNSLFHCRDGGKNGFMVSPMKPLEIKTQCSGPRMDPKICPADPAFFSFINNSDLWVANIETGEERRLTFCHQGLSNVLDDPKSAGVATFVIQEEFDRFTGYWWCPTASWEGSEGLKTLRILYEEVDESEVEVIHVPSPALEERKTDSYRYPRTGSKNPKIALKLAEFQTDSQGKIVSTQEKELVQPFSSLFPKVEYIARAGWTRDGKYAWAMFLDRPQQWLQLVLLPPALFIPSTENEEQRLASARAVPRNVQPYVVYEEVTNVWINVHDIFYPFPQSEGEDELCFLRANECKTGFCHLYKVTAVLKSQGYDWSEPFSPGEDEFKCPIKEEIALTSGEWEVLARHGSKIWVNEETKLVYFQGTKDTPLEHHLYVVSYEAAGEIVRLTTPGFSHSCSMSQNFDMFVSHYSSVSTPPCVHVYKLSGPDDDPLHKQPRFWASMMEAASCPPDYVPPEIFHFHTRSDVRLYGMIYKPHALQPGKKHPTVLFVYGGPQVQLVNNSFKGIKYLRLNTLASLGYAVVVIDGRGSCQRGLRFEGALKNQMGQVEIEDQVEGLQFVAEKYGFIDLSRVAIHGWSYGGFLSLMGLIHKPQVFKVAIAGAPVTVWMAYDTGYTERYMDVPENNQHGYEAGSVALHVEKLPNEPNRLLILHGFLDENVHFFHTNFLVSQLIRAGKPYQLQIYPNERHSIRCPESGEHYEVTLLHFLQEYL
T1 sequence (Q86TI2 1-892 isoform Q86TI2-2): as above

What does the source list for H-SLRFLFEGQRIADNH?
% DPP9 activity (Mean) [1]: 27.45%; inhibition of DPPIV [2]: not inhibited; degradation of GP-AMC in cytosolic extracts [3]: strongly reduced; binding of DPP9 to the SUMO1 beads after pre-incubation with peptide [4]: strongly reduced

Which “inhibition of cytosolic prolyl peptidase activity” value [5] does the source give for SLRFLYAG here?
Its value is about 30%.

For “VEVIHVPSPALEERKTDSYR (listed as Homo sapiens) [DPP9-arm peptide, peptide corresponding to the extended arm of DPP9 (285-304)]”, which “competition with DPP9 for binding to SUMO1” value [6] is on record?
Its value is “competed with DPP9 for binding to SUMO1 in a concentration dependent manner”.
